From ChEMBL document CHEMBL5223171, “Synthesis and discovery of Baylis-Hillman adducts as potent and selective thioredoxin reductase inhibitors for cancer treatment” (Bioorg Med Chem, 2023)

How the values were obtained:
[1] = system: HeLa; experiment: Cytotoxicity against human HeLa cells assessed as reduction in cell viability incubated for 72 hrs by MTT assay; assay type: functional, cell-based
[2] = system: HepG2; experiment: Cytotoxicity against human HepG2 cells assessed as reduction in cell viability incubated for 72 hrs by MTT assay; assay type: functional, cell-based; conditions: HepG2, 72 h
[3] = system: A549; experiment: Cytotoxicity against human A549 cells assessed as reduction in cell viability incubated for 72 hrs by MTT assay; assay type: functional, cell-based; conditions: A549, 72 h
[4] = system: HepG2; experiment: Induction of cell cycle arrest in human HepG2 cells assessed as accumulation at S phase at 10 uM incubated for 48 hrs by propidium iodide staining based flow cytometry (reference value: 20.55%); assay type: functional
[5] = system: HepG2; experiment: Induction of cell cycle arrest in human HepG2 cells assessed as accumulation at G2 phase at 10 uM incubated for 48 hrs by propidium iodide staining based flow cytometry (reference value: 14.85%); assay type: functional
[6] = system: HepG2; experiment: Induction of ROS generation in human HepG2 cells assessed as increase in intracellular ROS level at 2.5 to 10 uM incubated for 48 hrs by DCFH-DA staining based fluorescence microscopy; assay type: functional, cell-based; conditions: dose 2.5-10 µM
[7] = Inhibition of recombinant TrxR (unknown origin) using DTNB as substrate incubated for 2 hrs in presence of NADPH; parameters: species or system Homo sapiens
[8] = system: HepG2; experiment: Inhibition of colony formation in human HepG2 cells at 5 uM incubated for 5 days by crystal violet staining assay; assay type: functional; conditions: HepG2, 120 h, time 5 day
[9] = system: HepG2; experiment: Inhibition of TrxR in human HepG2 cells at 2.5 to 10 uM incubated for 52 hrs by TRFS-green staining based fluorescence microscopic analysis; assay type: cell-based; conditions: dose 2.5-10 µM
[10] = system: HepG2; experiment: Induction of cell cycle arrest in human HepG2 cells assessed as accumulation at G1 phase at 10 uM incubated for 48 hrs by propidium iodide staining based flow cytometry (reference value: 64.6%); assay type: functional
[11] = system: HepG2; experiment: Inhibition of colony formation in human HepG2 cells assessed as reduction in colony number at 5 to 10 uM incubated for 5 days by crystal violet staining assay; assay type: functional, cell-based; conditions: dose 5-10 µM, time 5.0 day
[12] = species: Homo sapiens; experiment: Inhibition of recombinant TrxR (unknown origin) using DTNB as substrate at 10 to 40 uM incubated for 2 hrs in presence of NADPH; conditions: dose 10-40 µM
[13] = system: HepG2; experiment: Inhibition of cell migration in human HepG2 cells at 5 to 10 uM incubated upto 48 hrs by wound healing assay; assay type: functional, cell-based; conditions: dose 5-10 µM
[14] = target: Thioredoxin reductase (Escherichia coli (strain K12)) (UniProt P0A9P4); experiment: Inhibition of Escherichia coil TrxR at 10 to 40 uM incubated for 2 hrs in presence of DTT and insulin; conditions: dose 10-40 µM
[15] = system: HepG2; experiment: Inhibition of TrxR in human HepG2 cells at 2.5 to 10 uM incubated for 48 hrs by NBL-SS probe based assay; assay type: cell-based; conditions: dose 2.5-10 µM
[16] = target: Thioredoxin reductase (Escherichia coli (strain K12), UniProt P0A9P4); experiment: Inhibition of Escherichia coil TrxR incubated for 2 hrs in presence of DTT and insulin
Thioredoxin reductase, sequence (P0A9P4 whole entry): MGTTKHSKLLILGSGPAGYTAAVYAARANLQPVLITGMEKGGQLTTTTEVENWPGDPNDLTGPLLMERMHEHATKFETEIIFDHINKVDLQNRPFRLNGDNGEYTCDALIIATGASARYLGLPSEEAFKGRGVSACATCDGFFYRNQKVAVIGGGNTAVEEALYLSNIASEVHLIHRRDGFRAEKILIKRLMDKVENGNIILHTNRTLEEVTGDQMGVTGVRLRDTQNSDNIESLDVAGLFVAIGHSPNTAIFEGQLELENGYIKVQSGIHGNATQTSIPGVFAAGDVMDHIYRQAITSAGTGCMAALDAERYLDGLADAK

Thioredoxin reductase (Escherichia coli (strain K12)), sequence (P0A9P4 whole entry): as above

C=C(COC(=O)Nc1ccc(C)cc1)C(=O)NC(C(=O)NCC(=O)OCC)c1ccc(Cl)cc1 (configuration not stated)
IC50 [1]: > 20 µM
IC50 [2]: > 20 µM
IC50 [3]: > 20 µM

C=C(COC(=O)Nc1ccc(C)cc1)C(=O)NC(CC(C)C)C(=O)NC(C)(C)C (configuration not stated)
IC50 [1]: > 20 µM
IC50 [2]: > 20 µM
IC50 [3]: > 20 µM

CCC(C)SSc1ncc[nH]1 (configuration not stated) [PX-12]
IC50 [1]: 9 µM
IC50 [2]: 12 µM
IC50 [3]: > 20 µM

C=C(COC(=O)Nc1ccc(C)cc1)C(=O)NC(C(=O)NC(C)(C)C)c1ccc(Cl)cc1 (configuration not stated)
IC50 [1]: > 20 µM
IC50 [2]: 11.6 µM
IC50 [3]: > 20 µM

C=C(COC(=O)Nc1ccc(C)cc1)C(=O)NC(C(=O)NC(C)(C)C)c1ccccc1 (configuration not stated)
IC50 [1]: > 20 µM
IC50 [2]: > 20 µM
IC50 [3]: > 20 µM

C=C(COC(=O)Nc1ccc(C)cc1)C(=O)NC(CC(C)C)C(=O)NCC(=O)OCC (configuration not stated)
Activity [4]: 17.74%
Activity [5]: 10.02%
Activity [6]: Dose-Dependent Effect
IC50 [1]: > 20 µM
IC50 [7]: 4.18 µM
inhibition at 5 µM [8]: 67.1%
inhibition [9]: Dose-Dependent Effect
Activity [10]: 72.24%
inhibition [11]: Dose-Dependent Effect
IC50 [2]: 4.7 µM
inhibition [12]: Dose-Dependent Effect
inhibition [13]: Dose-Dependent Effect
inhibition [14]: Dose-Dependent Effect
inhibition [15]: Dose-Dependent Effect
IC50 [16]: 16.6 µM
IC50 [3]: > 20 µM

C=C(COC(=O)Nc1ccc(C)cc1)C(=O)NC(C(=O)NCC(=O)OCC)c1ccc(Cl)cc1Cl (configuration not stated)
IC50 [1]: > 20 µM
IC50 [2]: > 20 µM
IC50 [3]: > 20 µM

C=C(COC(=O)Nc1ccc(C)cc1)C(=O)NC(C(=O)NC(C)(C)C)c1ccc(F)cc1 (configuration not stated)
IC50 [1]: > 20 µM
IC50 [2]: > 20 µM
IC50 [3]: > 20 µM

C=C(COC(=O)Nc1ccc(C)cc1)C(=O)NC(C(=O)NCC(=O)OCC)c1ccc(Br)cc1 (configuration not stated)
IC50 [1]: > 20 µM
IC50 [2]: 18.8 µM
IC50 [3]: > 20 µM

C=C(COC(=O)Nc1ccc(C)cc1)C(=O)NC(C(=O)NCC(=O)OCC)c1ccc(F)cc1 (configuration not stated)
IC50 [1]: > 20 µM
IC50 [2]: 17.6 µM
IC50 [3]: > 20 µM

C=C(COC(=O)Nc1ccc(C)cc1)C(=O)NC(C(=O)NC(C)(C)C)c1ccc(Cl)cc1Cl (configuration not stated)
IC50 [1]: > 20 µM
IC50 [2]: > 20 µM
IC50 [3]: > 20 µM

C=C(COC(=O)Nc1ccc(C)cc1)C(=O)NC(C(=O)NCC(=O)OCC)c1ccccc1 (configuration not stated)
IC50 [1]: > 20 µM
IC50 [2]: 11.5 µM
IC50 [3]: > 20 µM

C=C(COC(=O)Nc1ccc(C)cc1)C(=O)NC(C(=O)NC(C)(C)C)c1ccc(Br)cc1 (configuration not stated)
IC50 [1]: > 20 µM
IC50 [2]: > 20 µM
IC50 [3]: > 20 µM
